Results taken from patent US7919489B2, “Heterocyclyamide-substituted imidazoles” (Aicuris GmbH & Co. KG, priority 2005, dated 2011).

Columns and labels:
HCMV = assay: Anti-HCMV cytopathogenicity test (inhibition of CPE); format: cell-based, human cytomegalovirus; settings: for EC50: Human betaherpesvirus 5, 144 h, concentration inhibiting the CPE by 50% vs untreated virus control, HCMV-infected NHDF cells, 6 days
Description: Anti-HCMV (Anti-Human Cytomegalovirus) Cytopathogenicity Tests The test compounds are employed as 50 millimolar (mM) solutions in dimethyl sulfoxide (DMSO). Ganciclovir, foscarnet and cidofovir are used as reference compounds. After the addition of in each case 2 μl of the 50, 5, 0.5 and 0.05 mM DMSO stock solutions to 98 μl portions of cell culture medium in row […] for duplicate determinations, 1:2 dilutions are carried out with 50 μl portions of medium up to row 11 of the 96-well plate. The wells in rows 1 and 12 each contain 50 μl of medium. Then 150 μl of a suspension of 1×10^4 cells (human prepuce fibroblasts [NHDF]) are pipetted into each of the wells (row 1=cell control) and, in rows 2-12, a mixture of HCMV-infected and uninfected NHDF cells (M.O.I.=0.001-0.002), i.e. 1-2 infected cells per 1000 uninfected cells. Row 12 (without substance) serves as virus control. The final test concentrations are 250-0.0005 μM. The plates are incubated at 37° C./5% CO2 for 6 days, i.e. until all the cells in the virus controls are infected (100% cytopathogenic effect [CPE]). The wells are then fixed and stained by adding a mixture of formalin and Giemsa's dye (30 minutes), washed with double-distilled water and dried in a drying oven at 50° C. The plates are then assessed visually using an overhead microscope (Plaque Multiplier from Technomara). The following data can be acquired from the test plates: EC50 (HCMV)=substance concentration in μM which inhibits the CPE (cytopathic effect) by 50% compared with the untreated virus control; SI (selectivity index)=CC50 (NHDF)/EC50 (HCMV).

[1] = Anti-HCMV cytopathogenicity test: cytostatic effects on NHDF cells; format: cell-based; settings: human, NHDF cells (human prepuce fibroblasts), maximum substance concentration with no visible cytostatic effects vs untreated cell control
Description: Anti-HCMV (Anti-Human Cytomegalovirus) Cytopathogenicity Tests The test compounds are employed as 50 millimolar (mM) solutions in dimethyl sulfoxide (DMSO). Ganciclovir, foscarnet and cidofovir are used as reference compounds. After the addition of in each case 2 μl of the 50, 5, 0.5 and 0.05 mM DMSO stock solutions to 98 μl portions of cell culture medium in row […] for duplicate determinations, 1:2 dilutions are carried out with 50 μl portions of medium up to row 11 of the 96-well plate. The wells in rows 1 and 12 each contain 50 μl of medium. Then 150 μl of a suspension of 1×10^4 cells (human prepuce fibroblasts [NHDF]) are pipetted into each of the wells (row 1=cell control) and, in rows 2-12, a mixture of HCMV-infected and uninfected NHDF cells (M.O.I.=0.001-0.002), i.e. 1-2 infected cells per 1000 uninfected cells. Row 12 (without substance) serves as virus control. The final test concentrations are 250-0.0005 μM. The plates are incubated at 37° C./5% CO2 for 6 days, i.e. until all the cells in the virus controls are infected (100% cytopathogenic effect [CPE]). The wells are then fixed and stained by adding a mixture of formalin and Giemsa's dye (30 minutes), washed with double-distilled water and dried in a drying oven at 50° C. The plates are then assessed visually using an overhead microscope (Plaque Multiplier from Technomara). The following data can be acquired from the test plates: CC50 (NHDF)=maximum substance concentration in μM at which no visible cytostatic effects on the cells are evident by comparison with the untreated cell control;

| EC50 (HCMV) [nM] | Structure (SMILES) | SI HCMV (selectivity index = CC50 (NHDF)/EC50 (HCMV)) (HCMV) | CC50 at 6 days [1] [nM] |
| --- | --- | --- | --- |
| 3 | Cn1cc(NC(=O)Nc2ccc(OC(F)(F)F)cc2)nc1C(=O)N1CCN(c2ccccn2)CC1 [Example 1, N-{1-Methyl-2-[(4-pyridin-2-ylpiperazin-1-yl)carbonyl]-1H-imidazol-4-yl}-N′-[4-(trifluoromethoxy)phenyl]urea] | 14500 | 43500 |
| 0.75 | Cc1ccc(N2CCN(C(=O)c3nc(NC(=O)Nc4ccc(OC(F)(F)F)cc4)cn3C)CC2)nc1 [Example 2, N-(1-Methyl-2-{[4-(5-methylpyridin-2-yl)piperazin-1-yl]carbonyl}-1H-imidazol-4-yl)-N′-[4-(trifluoromethoxy)phenyl]urea] | 14530 | 10900 |
| 4.8 | Cn1cc(NC(=O)Nc2ccc(OC(F)(F)F)cc2)nc1C(=O)N1CCN(c2ccc(C#N)cn2)CC1 [Example 25] | 2600 | 12500 |
| 0.95 | COc1ccc(N2CCN(C(=O)c3nc(NC(=O)Nc4ccc(OC(F)(F)F)cc4)cn3C)CC2)nc1 [Example 29] | 35790 | 34000 |
| 0.85 | Cc1ccc(N2CCN(C(=O)c3nc(NC(=O)Nc4ccc(OC(F)(F)F)cc4)cn3CC3CC3)CC2)nc1 [Example 32] | 6240 | 5300 |
